Assays:
[1] = test system: amyotrophic lateral sclerosis (ALS) patients; test: Clinical studies: treatment of ALS patients by infusion; format: in vivo, human
Description: The surprising activity of the compounds of formula I and of medicaments containing these ingredients in the treatment of ALS patients can be seen from the following examples of effects which resulted after administration of orotyl-L-histidyl-L-prolinamide in clinical studies. This active ingredient was filled in lyophilized form in 6 mg portions in bottles, closed with rubber stoppers, also containing 12 mg mannitol.
A patient with bulbar palsy caused by ALS was treated three times daily (at 4 hour intervals) on four consecutive days in form of short infusions (i.e. within 30 minutes) with the active ingredient. The total cumulative doses were on the first day 18 mg, on the second day 36 mg, on the third day 54 mg and on the fourth day 72 mg. The single doses for each infusion were dissolved in 100 ml of a sterile isotonic solution of sodium chloride.
Another ALS patient, suffering for eight months from ALS, was treated in the same manner as described above. […] For instance, they became able to lift their arms above horizontal, to walk without a stick, to climb stairs without support, and they became independent in activities of everyday life (such as shaving, washing, cutting with a knife, using a fork, writing, etc.).
Three other ALS patients, who had been ill for five, seven and twelve months, respectively, were each treated on four consecutive days three times daily with 24 mg of the active ingredient, dissolved in 5% aqueous glucose solution, by intravenous infusion, applied within 30 minutes. […] Again the observed side effects were insignificant and could be neglected.

[2] = test system: amyotrophic lateral sclerosis (ALS) patients; test: as above; format: in vivo, human; remark: listed apart in the source
[3] = Example 3: three ALS patients, 24 mg three times daily, four days, intravenous infusion

## NC(=O)[C@@H]1CCCN1C(=O)[C@H](Cc1c[nH]cn1)NC(=O)c1cc(=O)[nH]c(=O)[nH]1 [orotyl-L-histidyl-L-prolinamide]
[1]; Example 1: one patient with bulbar palsy caused by ALS, short infusions (30 minutes) three times daily on four consecutive days, daily totals 18, 36, 54, 72 mg
  improvement in bulbar symptoms: remarkable improvements in the bulbar symptoms
[1]; Example 1: patient with bulbar palsy, four-day infusion treatment
  persistence of improvement after medication ended: remained for several days
[1]; Example 1: short infusions three times daily, four days, daily totals 18, 36, 54, 72 mg
  side effects of the treatment: insignificant
[1]; Example 2: four days therapy, same regimen as Example 1
  persistence of improvement after therapy finished: sustained for some days
[1]; Example 2: one patient suffering for eight months from ALS, same regimen as Example 1
  improvement in muscle weakness: striking improvement in muscle weakness
[1]; Example 3: three ALS patients, 24 mg three times daily on four consecutive days, intravenous infusion in 5% glucose within 30 minutes
  improvement in everyday motor abilities: Remarkable improvements were noted in using buttons and zippers and in the ability to walk without assistance
[1]; [3]
  clonic reflexes: changed to normal
  observed side effects: insignificant
  tendency to become fatigued: reduced
[2]; Example 4: one ALS patient with pronounced atrophy of the hand muscles, total 18 mg on one day (infusions of 6 mg at four hour intervals)
  effect on hand musculature: evident effect on the hand musculature
[2]; Example 4: total 18 mg on one day by infusion
  persistence of effect after ending of medication: remained for some time

Reference: patent US4788179A, “Method of treating amyotrophic lateral sclerosis with dipeptide derivatives and pharmaceutical compositions for use therein” (Gruenenthal GmbH, priority 1984, dated 1988)
